# According to article PMC7226989, “Establishment of an in Vitro Human Blood-Brain Barrier Model Derived from Induced Pluripotent Stem Cells and Comparison to a Porcine Cell-Based System” (Cells, 2020):
# Where two headings read alike, the source gives them in different places.
# Assays:
# [1] = Permeability assay across hiPSC-derived BMECs clone 2 on Transwell, co-culture with human astrocytes
# in vitro [2] = conditions: human
# [3] = test system: hiPSC-derived BMECs (Cl1)
# in vitro [4] = conditions: human; remark: listed apart in the source
# hiPSC-derived BMECs [5] = test system: hiPSC-derived BMECs
# [6] = test system: hiPSC-derived BMECs (Cl1); assay: Permeability assay across hiPSC-derived BMECs clone 1 on Transwell, co-culture with human astrocytes
# [7] = test system: primary porcine brain endothelial cells (PBECs); conditions: cited from earlier work
# [8] = test system: hiPSC-derived BMECs (IMR-90); conditions: cited from earlier work
# [9] = test system: hiPSC-derived BMECs (r-iSPC 1j cells); parameters: method as in Delsing et al. 34; conditions: ref Delsing et al. 34; cited from earlier work
# hiPSC-derived BMECs [10] = conditions: ref Lippmann 6; cited from earlier work
# hiPSC-derived BMECs [11] = assay: Human BBB model permeability, clone not specified or both clones; conditions: for Permeability classification in words: human BBB model, for several compounds stated for both human and porcine models
# [12] = as above; conditions: human
# [13] = Permeability assay across hiPSC-derived BMECs clone 1 on Transwell, co-culture with human astrocytes
# [14] = test system: hiPSC-derived BMECs (Cl2)
# [15] = test system: primary porcine brain endothelial cells (PBECs); assay: Porcine BBB model transport assay; conditions: porcine vs human
# [16] = test system: human endothelial cell line hCMEC/D3; parameters: method as in PMID 30374619; conditions: cited from earlier work
molecule,measurement,setting,value
CC(=O)O[C@H]1C(=O)[C@@]2(C)[C@H]([C@H](OC(=O)c3ccccc3)[C@]3(O)C[C@H](OC(=O)[C@H](O)[C@@H](NC(=O)c4ccccc4)c4ccccc4)C(C)=C1C3(C)C)[C@]1(OC(C)=O)CO[C@@H]1C[C@@H]2O [taxol],Papp,[1],4.9 ± 1 ×10⁻⁶ cm/s
same,Papp A→B,in vitro [2],6.3 ± 0.6 ×10⁻⁶ cm/s
same,Papp B→A,in vitro [2],15.4 ± 0.5 ×10⁻⁶ cm/s
same,efflux ratio,in vitro [2],2.4
same,Papp,in vitro [2]; Permeability human BBB_Cl1,6.8 ± 0.7 ×10⁻⁶ cm/s
CC(C)C[C@H](N)C(=O)O [leucine],"Vectorial transport, AB direction over BA direction",[3],three-fold
same,Papp,[1],19.9 ± 6.4 ×10⁻⁶ cm/s
same,Papp,in vitro [4],18 to 20 ×10⁻⁶ cm/s
same,Papp A→B,in vitro [2],18.5 ± 2.2 ×10⁻⁶ cm/s
same,Papp B→A,in vitro [2],6.4 ± 0.7 ×10⁻⁶ cm/s
same,Papp,in vitro [2]; Permeability human BBB_Cl1,18 ± 1.8 ×10⁻⁶ cm/s
same,Fold higher permeability in the human than in the porcine model,hiPSC-derived BMECs [5],about three-fold
same,Permeability classification in words,hiPSC-derived BMECs [5],highly permeable
same,Reduction of transport in the presence of JPH203,"[6]; 10 µM JPH203, selective LAT1 inhibitor",about 70%
OC[C@H]1OC(O)[C@H](O)[C@@H](O)[C@@H]1O (stereo partly shown) [glucose],Papp,[1],25.2 ± 7.9 ×10⁻⁶ cm/s
same,Papp,in vitro [2]; Permeability human BBB_Cl1,25 ± 2.7 ×10⁻⁶ cm/s
same,Fold higher permeability in the human than in the porcine model,hiPSC-derived BMECs [5]; human and pig,more than 3.5
same,Inhibition of transport by phloretin,[6]; 200 µM phloretin,~80%
same,Permeability in the porcine model,[7],7 ×10⁻⁶ cm/s
Cn1c(=O)c2c(ncn2C)n(C)c1=O [caffeine],Papp,[1],26.5 ± 0.6 ×10⁻⁶ cm/s
same,Papp,in vitro [4],27 to 31 ×10⁻⁶ cm/s
same,Papp,in vitro [2]; Permeability human BBB_Cl1,30.7 ± 2 ×10⁻⁶ cm/s
same,Permeability classification in words,hiPSC-derived BMECs [5],highly permeable
same,Published permeability,"[8]; IMR-90 cells, ref Appelt-Menzel et al. 36",25.3 ×10⁻⁶ cm/s
C[C@H]1O[C@@H](O[C@H]2[C@@H](O)C[C@H](O[C@H]3[C@@H](O)C[C@H](O[C@H]4CC[C@@]5(C)[C@H](CC[C@@H]6[C@@H]5C[C@@H](O)[C@]5(C)[C@@H](C7=CC(=O)OC7)CC[C@]65O)C4)O[C@@H]3C)O[C@@H]2C)C[C@H](O)[C@@H]1O [digoxin],Papp B→A,in vitro [2],7.3 ± 0.6 ×10⁻⁶ cm/s
CC(C)NCC(O)COc1cccc2ccccc12 (stereo not shown) [propranolol],Papp,[1],22 ± 2.4 ×10⁻⁶ cm/s
same,Papp,in vitro [4],22 to 26 ×10⁻⁶ cm/s
same,Published permeability,[9],22.6 ×10⁻⁶ cm/s
same,Papp,in vitro [2]; Permeability human BBB_Cl1,25.8 ± 4.6 ×10⁻⁶ cm/s
same,Permeability classification in words,hiPSC-derived BMECs [5],highly permeable
same,Published permeability,[8]; ref Mantle et al. 35,around 30 × 10^−6 cm/s
COc1cc2nc(N3CCN(C(=O)c4ccco4)CC3)nc(N)c2cc1OC [prazosin],Published permeability,hiPSC-derived BMECs [10],4.3 ×10⁻⁶ cm/s
same,Published permeability,[8]; ref Kurosawa 20,8.7 ×10⁻⁶ cm/s
N[C@@H](Cc1ccccc1)C(=O)O [phenylalanine],Papp,[1],28.6 ± 5.7 ×10⁻⁶ cm/s
same,Fold higher permeability in the human than in the porcine model,hiPSC-derived BMECs [11]; human vs porcine,two-fold
CCC(=O)CCCCCC(NC(=O)C1CN(C)C1)c1ncc(-c2cc3ccccc3nc2OC)o1 (stereo not shown) [cpK],Papp,[12],15.4 ± 8.3 ×10⁻⁶ cm/s
same,Permeability classification in words,hiPSC-derived BMECs [11],medium permeability
same,Permeability porcine BBB,[7],10.5 ± 3.4 x10^-6 cm/s
NCC1(CC(=O)O)CCCCC1 [gabapentin],Papp,in vitro [4],12 ×10⁻⁶ cm/s
same,Permeability classification in words,hiPSC-derived BMECs [11],moderate to high permeability
same,Papp,[13]; human,11.9 ± 2.9 ×10⁻⁶ cm/s
lucifer yellow,Permeability A-B,[3],0.15 ± 0.001 x10^-6 cm/s
same,Permeability B-A,[3],0.13 ± 0.004 x10^-6 cm/s
same,Permeability fresh,[3],0.21 ± 0.12 x10^-6 cm/s
same,Permeability frozen,[3],0.09 ± 0.04 x10^-6 cm/s
same,Permeability human BBB_Cl1,[3],0.18 ± 0.11 x10^-6 cm/s
same,efflux ratio,[3],0.9
same,Permeability human BBB_Cl2,[14],0.33 ± 0.30 x10^-6 cm/s
CC(C)[C@H](NC(=O)[C@H](CCC(=O)O)NC(=O)[C@H](Cc1ccccc1)NC(=O)[C@@H](C)NC(=O)[C@@H](N)Cc1ccc(O)cc1)C(=O)N[C@H](C(=O)NCC(N)=O)C(C)C [[D-Ala2]deltorphin II],Papp,,7.7 ± 1.7 ×10⁻⁶ cm/s
same,Permeability classification in words,hiPSC-derived BMECs [11],moderate permeability
same,Fold higher permeability in the porcine than in the human model,[15],two-fold
same,Papp,[13],3.8 ± 0.5 ×10⁻⁶ cm/s
CN(Cc1cnc2nc(N)nc(N)c2n1)c1ccc(C(=O)N[C@@H](CCC(=O)O)C(=O)O)cc1 [methotrexate],Papp,[1],0.77 ± 0.1 ×10⁻⁶ cm/s
same,Papp,in vitro [2]; Permeability human BBB_Cl1,0.65 ± 0.12 ×10⁻⁶ cm/s
same,Fold higher permeability in the porcine than in the human model,[15],eight times
O=C1NC(=O)C(c2ccccc2)(c2ccccc2)N1 [phenytoin],Papp,[1],18.6 ± 0.9 ×10⁻⁶ cm/s
same,Published permeability,[9],35.6 ×10⁻⁶ cm/s
same,Papp,[12],19 to 21 ×10⁻⁶ cm/s
same,Permeability classification in words,hiPSC-derived BMECs [11],highly permeable
same,Papp,"[13]; human, Permeability human BBB_Cl1, Figure 5C, mean ± sd",21.3 ± 2.1 ×10⁻⁶ cm/s
COc1cccc2c1C(=O)c1c(O)c3c(c(O)c1C2=O)C[C@@](O)(C(C)=O)C[C@@H]3O[C@H]1C[C@H](N)[C@H](O)[C@H](C)O1 [daunomycin],Papp,[1],6.5 ± 0.7 ×10⁻⁶ cm/s
same,Papp,in vitro [4],7 to 9 ×10⁻⁶ cm/s
same,Papp,in vitro [2]; Permeability human BBB_Cl1,9.3 ± 2.7 ×10⁻⁶ cm/s
same,Fold higher permeability in the human than in the porcine model,hiPSC-derived BMECs [5],two-fold
same,Permeability classification in words,hiPSC-derived BMECs [5],medium permeability
OC[C@@H](O)[C@@H](O)[C@H](O)[C@H](O)CO [mannitol],Papp,[1],0.8 ± 0.1 ×10⁻⁶ cm/s
same,Papp,in vitro [2]; Permeability fresh,0.56 ± 0.28 ×10⁻⁶ cm/s
same,Papp,in vitro [2]; Permeability frozen,0.67 ± 0.25 ×10⁻⁶ cm/s
same,Papp,in vitro [2]; Permeability human BBB_Cl1,0.6 ± 0.24 ×10⁻⁶ cm/s
O=C(O)c1cc(=O)c2ccccc2[nH]1 [kynurenic acid],Papp,in vitro [4],0.3 ×10⁻⁶ cm/s
same,Papp,in vitro [2]; Permeability human BBB_Cl1,0.32 ± 0.06 ×10⁻⁶ cm/s
same,Permeability classification in words,hiPSC-derived BMECs [5],low permeability
same,Permeability in porcine (unit not given),[7]; porcine model,2.8
CC(C)C[C@H](CN)CC(=O)O [pregabalin],Inhibition in the uptake after LAT-1 mRNA silencing,[16],75%
CC[C@]1(O)C[C@@H]2CN(CCc3c([nH]c4ccccc34)[C@@](C(=O)OC)(c3cc4c(cc3OC)N(C)[C@H]3[C@@](O)(C(=O)OC)[C@H](OC(C)=O)[C@]5(CC)C=CCN6CC[C@]43[C@@H]65)C2)C1 [vinblastine],Papp,[1],3.5 ± 0.8 ×10⁻⁶ cm/s
same,efflux ratio,in vitro [2],1.5
same,Papp,in vitro [2]; Permeability human BBB_Cl1,4.1 ± 0.4 ×10⁻⁶ cm/s
same,Fold higher permeability in the human than in the porcine model,hiPSC-derived BMECs [5],two-fold
same,Permeability classification in words,hiPSC-derived BMECs [5],medium permeability
